Results: ChEMBL document CHEMBL4507287, “Data for DCP probe MRL-650” (2021)

How the values were obtained:
[1] = target: Serine/threonine-protein kinase PAK 3 (Homo sapiens) (UniProt O75914); conditions: Compound concentration 1000.0 nM
[2] = target: Beta-2 adrenergic receptor (Homo sapiens) (UniProt P07550); conditions: Compound concentration 10.0 uM
[3] = target: Tyrosine-protein kinase Mer (Homo sapiens) (UniProt Q12866); conditions: Compound concentration 1000.0 nM
[4] = target: Ephrin type-A receptor 1 (Homo sapiens) (UniProt P21709); conditions: Compound concentration 1000.0 nM
[5] = target: Mitogen-activated protein kinase kinase kinase 13 (Homo sapiens) (UniProt O43283); conditions: Compound concentration 1000.0 nM
[6] = target: Protein kinase C iota type (Homo sapiens) (UniProt P41743); conditions: Compound concentration 1000.0 nM
[7] = target: Calcium/calmodulin-dependent protein kinase type II subunit beta (Homo sapiens) (UniProt Q13554); conditions: Compound concentration 1000.0 nM
[8] = target: Mitogen-activated protein kinase kinase kinase kinase 1 (Homo sapiens) (UniProt Q92918); conditions: Compound concentration 1000.0 nM
[9] = target: Fibroblast growth factor receptor 2 (Homo sapiens) (UniProt P21802); conditions: Compound concentration 1000.0 nM
[10] = target: Serine/threonine-protein kinase Sgk2 (Homo sapiens) (UniProt Q9HBY8); conditions: Compound concentration 1000.0 nM
[11] = target: Serine/threonine-protein kinase TBK1 (Homo sapiens) (UniProt Q9UHD2); conditions: Compound concentration 1000.0 nM
[12] = target: Serine/threonine-protein kinase STK11 (Homo sapiens) (UniProt Q15831); conditions: Compound concentration 1000.0 nM
[13] = target: Serine/threonine-protein kinase NIM1 (Homo sapiens) (UniProt Q8IY84); conditions: Compound concentration 1000.0 nM
[14] = target: Serine/threonine-protein kinase 32B (Homo sapiens) (UniProt Q9NY57); conditions: Compound concentration 1000.0 nM
[15] = target: Ribosomal protein S6 kinase alpha-2 (Homo sapiens) (UniProt Q15349); conditions: Compound concentration 1000.0 nM
[16] = target: Tyrosine-protein kinase receptor UFO (Homo sapiens) (UniProt P30530); conditions: Compound concentration 1000.0 nM
[17] = target: Fibroblast growth factor receptor 1 (Homo sapiens) (UniProt P11362); conditions: Compound concentration 1000.0 nM
[18] = target: 5'-AMP-activated protein kinase catalytic subunit alpha-2 (Homo sapiens) (UniProt P54646); conditions: Compound concentration 1000.0 nM
[19] = target: Activin receptor type-1 (Homo sapiens) (UniProt Q04771); conditions: Compound concentration 1000.0 nM
[20] = target: Tyrosine-protein kinase JAK2 (Homo sapiens) (UniProt O60674); conditions: Compound concentration 1000.0 nM
[21] = target: Serine/threonine-protein kinase Nek5 (Homo sapiens) (UniProt Q6P3R8); conditions: Compound concentration 1000.0 nM
[22] = target: D(3) dopamine receptor (Homo sapiens) (UniProt P35462); conditions: Compound concentration 10.0 uM
[23] = target: Epidermal growth factor receptor (Homo sapiens) (UniProt P00533); conditions: Compound concentration 1000.0 nM
[24] = target: Mitogen-activated protein kinase kinase kinase 14 (Homo sapiens) (UniProt Q99558); conditions: Compound concentration 1000.0 nM
[25] = target: Interleukin-1 receptor-associated kinase 3 (Homo sapiens) (UniProt Q9Y616); conditions: Compound concentration 1000.0 nM
[26] = target: Dual specificity mitogen-activated protein kinase kinase 1 (Homo sapiens) (UniProt Q02750); conditions: Compound concentration 1000.0 nM
[27] = target: Calcium/calmodulin-dependent protein kinase kinase 1 (Homo sapiens) (UniProt Q8N5S9); conditions: Compound concentration 1000.0 nM
[28] = target: Megakaryocyte-associated tyrosine-protein kinase (Homo sapiens) (UniProt P42679); conditions: Compound concentration 1000.0 nM
[29] = target: Fibroblast growth factor receptor 3 (Homo sapiens) (UniProt P22607); conditions: Compound concentration 1000.0 nM
[30] = target: Aurora kinase C (Homo sapiens) (UniProt Q9UQB9); conditions: Compound concentration 1000.0 nM
[31] = target: Mitogen-activated protein kinase 8 (Homo sapiens) (UniProt P45983); conditions: Compound concentration 1000.0 nM
[32] = target: Receptor-interacting serine/threonine-protein kinase 4 (Homo sapiens) (UniProt P57078); conditions: Compound concentration 1000.0 nM
[33] = target: Tyrosine-protein kinase Fer (Homo sapiens) (UniProt P16591); conditions: Compound concentration 1000.0 nM
[34] = target: Myosin light chain kinase 2, skeletal/cardiac muscle (Homo sapiens) (UniProt Q9H1R3); conditions: Compound concentration 1000.0 nM
[35] = target: Sigma intracellular receptor 2 (Homo sapiens, UniProt Q5BJF2); conditions: Compound concentration 10.0 uM
[36] = target: Rho-associated protein kinase 2 (Homo sapiens) (UniProt O75116); conditions: Compound concentration 1000.0 nM
[37] = target: Mitotic checkpoint serine/threonine-protein kinase BUB1 (Homo sapiens) (UniProt O43683); conditions: Compound concentration 1000.0 nM
[38] = target: Receptor-type tyrosine-protein kinase FLT3 (Homo sapiens) (UniProt P36888); conditions: Compound concentration 1000.0 nM
[39] = system: Tyrosine-protein kinase ABL1 (Homo sapiens), P00519 [E255K]; conditions: Compound concentration 1000.0 nM
[40] = target: Alpha-1D adrenergic receptor (Homo sapiens) (UniProt P25100); conditions: Compound concentration 10.0 uM
[41] = target: SRSF protein kinase 1 (Homo sapiens) (UniProt Q96SB4); conditions: Compound concentration 1000.0 nM
[42] = target: Serine/threonine-protein kinase MRCK beta (Homo sapiens) (UniProt Q9Y5S2); conditions: Compound concentration 1000.0 nM
[43] = target: Serine/threonine-protein kinase TAO2 (Homo sapiens) (UniProt Q9UL54); conditions: Compound concentration 1000.0 nM
[44] = target: Ephrin type-B receptor 4 (Homo sapiens) (UniProt P54760); conditions: Compound concentration 1000.0 nM
[45] = target: Dual specificity testis-specific protein kinase 1 (Homo sapiens) (UniProt Q15569); conditions: Compound concentration 1000.0 nM

Serine/threonine-protein kinase Sgk2 (Homo sapiens), sequence (Q9HBY8 whole entry): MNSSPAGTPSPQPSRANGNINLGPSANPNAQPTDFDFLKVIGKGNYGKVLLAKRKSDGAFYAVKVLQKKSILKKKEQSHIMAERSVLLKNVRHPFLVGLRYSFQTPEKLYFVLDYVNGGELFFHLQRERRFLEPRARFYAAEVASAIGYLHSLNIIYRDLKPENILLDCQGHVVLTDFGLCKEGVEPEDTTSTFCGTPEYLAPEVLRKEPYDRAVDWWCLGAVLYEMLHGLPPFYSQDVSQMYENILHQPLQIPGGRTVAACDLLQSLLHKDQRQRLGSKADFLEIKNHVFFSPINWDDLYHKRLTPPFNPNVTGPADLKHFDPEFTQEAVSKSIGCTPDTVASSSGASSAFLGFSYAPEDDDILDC
Mitogen-activated protein kinase kinase kinase 13 (Homo sapiens), sequence (O43283 whole entry): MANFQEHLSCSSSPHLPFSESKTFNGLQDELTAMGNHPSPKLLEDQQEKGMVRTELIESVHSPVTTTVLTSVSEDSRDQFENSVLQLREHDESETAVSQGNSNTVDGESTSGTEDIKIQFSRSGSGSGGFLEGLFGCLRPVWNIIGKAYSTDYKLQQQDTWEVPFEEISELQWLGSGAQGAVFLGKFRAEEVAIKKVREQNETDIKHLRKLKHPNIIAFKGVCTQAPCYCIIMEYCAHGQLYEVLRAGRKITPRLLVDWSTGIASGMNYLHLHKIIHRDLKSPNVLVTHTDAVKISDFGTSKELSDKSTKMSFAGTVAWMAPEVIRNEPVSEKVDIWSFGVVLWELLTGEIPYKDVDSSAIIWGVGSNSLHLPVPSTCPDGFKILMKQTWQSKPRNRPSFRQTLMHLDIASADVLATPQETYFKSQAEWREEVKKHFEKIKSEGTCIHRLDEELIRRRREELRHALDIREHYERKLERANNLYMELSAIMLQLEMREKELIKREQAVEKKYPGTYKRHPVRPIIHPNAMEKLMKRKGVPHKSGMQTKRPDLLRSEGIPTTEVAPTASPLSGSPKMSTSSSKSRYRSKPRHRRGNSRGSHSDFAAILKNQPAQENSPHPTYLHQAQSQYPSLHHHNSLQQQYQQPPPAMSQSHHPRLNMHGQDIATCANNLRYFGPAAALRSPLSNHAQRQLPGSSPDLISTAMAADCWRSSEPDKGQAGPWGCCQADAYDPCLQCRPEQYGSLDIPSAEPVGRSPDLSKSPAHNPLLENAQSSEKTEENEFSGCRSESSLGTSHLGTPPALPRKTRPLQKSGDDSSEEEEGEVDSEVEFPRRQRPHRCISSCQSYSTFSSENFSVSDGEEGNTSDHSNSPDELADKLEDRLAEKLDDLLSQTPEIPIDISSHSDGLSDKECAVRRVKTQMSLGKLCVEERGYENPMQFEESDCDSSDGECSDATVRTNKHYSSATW
Serine/threonine-protein kinase STK11 (Homo sapiens), sequence (Q15831 whole entry): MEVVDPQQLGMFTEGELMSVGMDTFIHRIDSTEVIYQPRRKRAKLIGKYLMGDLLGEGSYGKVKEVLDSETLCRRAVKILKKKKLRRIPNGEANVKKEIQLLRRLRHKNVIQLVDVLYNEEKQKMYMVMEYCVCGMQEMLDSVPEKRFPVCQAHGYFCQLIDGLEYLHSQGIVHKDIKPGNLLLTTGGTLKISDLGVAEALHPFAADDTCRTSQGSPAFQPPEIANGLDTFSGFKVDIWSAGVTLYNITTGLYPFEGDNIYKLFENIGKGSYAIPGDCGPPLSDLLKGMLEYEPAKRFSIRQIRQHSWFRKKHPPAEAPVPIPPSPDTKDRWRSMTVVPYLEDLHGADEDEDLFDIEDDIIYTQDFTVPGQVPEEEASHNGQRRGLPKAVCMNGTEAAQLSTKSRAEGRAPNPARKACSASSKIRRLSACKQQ
Fibroblast growth factor receptor 3 (Homo sapiens), sequence (P22607 23-806 limits assumed): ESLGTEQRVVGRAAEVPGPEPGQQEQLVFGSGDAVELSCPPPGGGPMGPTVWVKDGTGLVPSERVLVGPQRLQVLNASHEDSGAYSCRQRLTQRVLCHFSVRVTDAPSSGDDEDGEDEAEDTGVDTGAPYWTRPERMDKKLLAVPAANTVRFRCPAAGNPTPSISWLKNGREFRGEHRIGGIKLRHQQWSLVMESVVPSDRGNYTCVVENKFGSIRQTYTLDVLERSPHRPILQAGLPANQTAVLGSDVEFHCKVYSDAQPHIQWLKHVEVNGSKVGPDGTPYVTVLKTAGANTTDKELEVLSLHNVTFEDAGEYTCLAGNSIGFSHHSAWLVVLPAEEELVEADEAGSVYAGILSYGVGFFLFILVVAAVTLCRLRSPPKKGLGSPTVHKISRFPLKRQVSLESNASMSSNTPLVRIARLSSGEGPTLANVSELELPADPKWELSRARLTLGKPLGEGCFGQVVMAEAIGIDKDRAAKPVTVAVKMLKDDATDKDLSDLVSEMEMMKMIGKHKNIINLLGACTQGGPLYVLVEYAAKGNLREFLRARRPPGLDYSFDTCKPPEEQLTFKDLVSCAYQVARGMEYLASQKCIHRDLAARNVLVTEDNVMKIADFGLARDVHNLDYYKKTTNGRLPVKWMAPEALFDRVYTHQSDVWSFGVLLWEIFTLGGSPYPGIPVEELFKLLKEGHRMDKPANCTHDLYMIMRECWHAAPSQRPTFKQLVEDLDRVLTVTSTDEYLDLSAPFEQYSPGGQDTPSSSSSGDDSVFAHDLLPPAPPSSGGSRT
Fibroblast growth factor receptor 2 (Homo sapiens), sequence (P21802 22-821 limits assumed): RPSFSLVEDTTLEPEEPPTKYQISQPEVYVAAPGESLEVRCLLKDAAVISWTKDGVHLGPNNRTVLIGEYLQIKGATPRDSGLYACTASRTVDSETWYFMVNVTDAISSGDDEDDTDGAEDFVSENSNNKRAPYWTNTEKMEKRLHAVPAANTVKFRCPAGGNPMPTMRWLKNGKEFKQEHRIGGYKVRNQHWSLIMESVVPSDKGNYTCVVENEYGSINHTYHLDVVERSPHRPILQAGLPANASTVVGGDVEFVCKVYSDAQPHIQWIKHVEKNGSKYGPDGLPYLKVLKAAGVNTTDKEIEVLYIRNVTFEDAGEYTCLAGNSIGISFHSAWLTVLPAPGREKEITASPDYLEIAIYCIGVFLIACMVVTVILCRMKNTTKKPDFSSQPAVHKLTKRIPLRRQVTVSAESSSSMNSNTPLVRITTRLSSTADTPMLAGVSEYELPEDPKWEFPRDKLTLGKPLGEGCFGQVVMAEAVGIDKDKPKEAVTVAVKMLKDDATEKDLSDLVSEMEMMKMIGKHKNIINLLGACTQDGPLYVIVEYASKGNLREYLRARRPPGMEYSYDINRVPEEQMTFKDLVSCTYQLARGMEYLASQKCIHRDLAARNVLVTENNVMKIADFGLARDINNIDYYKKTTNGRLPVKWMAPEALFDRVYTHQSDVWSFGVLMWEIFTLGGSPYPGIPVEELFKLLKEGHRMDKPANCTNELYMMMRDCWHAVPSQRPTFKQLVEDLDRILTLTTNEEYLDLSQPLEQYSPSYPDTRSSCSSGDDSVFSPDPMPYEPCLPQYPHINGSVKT
Myosin light chain kinase 2, skeletal/cardiac muscle (Homo sapiens), sequence (Q9H1R3 whole entry): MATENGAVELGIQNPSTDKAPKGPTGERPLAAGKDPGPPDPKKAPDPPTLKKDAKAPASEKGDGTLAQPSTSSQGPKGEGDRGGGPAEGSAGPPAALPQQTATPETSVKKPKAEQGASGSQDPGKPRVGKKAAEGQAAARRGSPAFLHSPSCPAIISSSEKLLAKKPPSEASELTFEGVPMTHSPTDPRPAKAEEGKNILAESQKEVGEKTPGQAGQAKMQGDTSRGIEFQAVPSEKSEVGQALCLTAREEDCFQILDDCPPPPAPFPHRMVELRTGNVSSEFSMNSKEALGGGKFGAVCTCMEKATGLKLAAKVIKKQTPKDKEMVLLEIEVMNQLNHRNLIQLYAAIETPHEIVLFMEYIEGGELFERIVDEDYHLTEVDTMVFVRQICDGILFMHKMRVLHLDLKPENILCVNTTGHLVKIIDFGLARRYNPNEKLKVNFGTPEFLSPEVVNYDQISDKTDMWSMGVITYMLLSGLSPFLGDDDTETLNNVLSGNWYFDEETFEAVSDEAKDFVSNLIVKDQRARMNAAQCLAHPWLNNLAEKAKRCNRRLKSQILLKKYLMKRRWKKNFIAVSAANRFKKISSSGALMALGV
Mitogen-activated protein kinase kinase kinase kinase 1 (Homo sapiens), sequence (Q92918 whole entry, looked up): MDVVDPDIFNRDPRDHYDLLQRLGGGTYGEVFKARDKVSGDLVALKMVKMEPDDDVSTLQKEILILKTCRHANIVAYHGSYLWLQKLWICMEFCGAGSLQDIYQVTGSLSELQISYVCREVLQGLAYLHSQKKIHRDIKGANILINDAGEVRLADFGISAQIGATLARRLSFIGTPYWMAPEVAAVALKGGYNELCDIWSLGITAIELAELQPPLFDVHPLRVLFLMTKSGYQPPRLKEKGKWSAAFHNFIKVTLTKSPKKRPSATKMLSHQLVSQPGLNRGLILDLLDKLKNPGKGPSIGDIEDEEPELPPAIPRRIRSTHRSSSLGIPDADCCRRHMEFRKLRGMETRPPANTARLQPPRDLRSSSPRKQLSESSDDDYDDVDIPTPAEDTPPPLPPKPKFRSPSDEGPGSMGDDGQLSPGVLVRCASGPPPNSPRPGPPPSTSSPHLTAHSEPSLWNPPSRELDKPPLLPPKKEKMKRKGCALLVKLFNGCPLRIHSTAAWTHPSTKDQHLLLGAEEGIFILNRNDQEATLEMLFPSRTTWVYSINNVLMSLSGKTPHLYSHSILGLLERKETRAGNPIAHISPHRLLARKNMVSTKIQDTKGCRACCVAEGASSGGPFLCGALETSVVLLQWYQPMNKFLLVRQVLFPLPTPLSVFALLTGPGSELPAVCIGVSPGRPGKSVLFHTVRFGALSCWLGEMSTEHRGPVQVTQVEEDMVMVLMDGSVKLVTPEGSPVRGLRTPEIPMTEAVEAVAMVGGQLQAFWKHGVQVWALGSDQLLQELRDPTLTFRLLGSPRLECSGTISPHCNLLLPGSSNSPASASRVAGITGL
Sigma intracellular receptor 2, sequence (Q5BJF2 whole entry): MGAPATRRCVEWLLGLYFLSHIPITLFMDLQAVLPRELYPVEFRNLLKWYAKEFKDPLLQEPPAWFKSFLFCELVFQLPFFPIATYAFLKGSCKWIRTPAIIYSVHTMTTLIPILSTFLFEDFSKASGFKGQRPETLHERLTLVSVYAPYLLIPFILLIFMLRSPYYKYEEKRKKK

CC(=O)c1c(NS(C)(=O)=O)c2cc(-c3ccc(Cl)cc3)c(-c3ccc(Cl)cc3Cl)nc2n(C)c1=O [MRL-CB1-NC]
inactive: residual activity [1] 100% | inhibition [2] 5.51% | residual activity [3] 100% | residual activity [4] 100% | residual activity [5] 71% | residual activity [6] 100% | residual activity [7] 100% | residual activity [8] 100% | residual activity [9] 92% | residual activity [10] 92% | residual activity [11] 92% | residual activity [12] 100% | residual activity [13] 81% | residual activity [14] 89% | residual activity [15] 100% | residual activity [16] 100% | residual activity [17] 97% | residual activity [18] 85% | residual activity [19] 93% | residual activity [20] 97% | residual activity [21] 100% | inhibition [22] 5.91% | residual activity [23] 100% | residual activity [24] 63% | residual activity [25] 100% | residual activity [26] 81% | residual activity [27] 100% | residual activity [28] 83% | residual activity [29] 100% | residual activity [30] 100% | residual activity [31] 63% | residual activity [32] 61% | residual activity [33] 100% | residual activity [34] 98% | inhibition [35] 17.6% | residual activity [36] 100% | residual activity [37] 76% | residual activity [38] 92% | residual activity [39] 100% | inhibition [40] 15.9% | residual activity [41] 100% | residual activity [42] 81% | residual activity [43] 97% | residual activity [44] 92% | residual activity [45] 100%

CC(=O)Nc1c(C(C)=O)c(=O)n(C)c2nc(-c3ccc(Cl)cc3Cl)c(-c3ccc(Cl)cc3)cc12 [NAPHTHYRIDINONE]
active: residual activity [12] 43% | inhibition [35] 54.6%
inactive: residual activity [1] 100% | inhibition [2] 12.6% | residual activity [3] 100% | residual activity [4] 100% | residual activity [5] 100% | residual activity [6] 100% | residual activity [7] 100% | residual activity [8] 91% | residual activity [9] 100% | residual activity [10] 100% | residual activity [11] 81% | residual activity [13] 100% | residual activity [14] 100% | residual activity [15] 100% | residual activity [16] 100% | residual activity [17] 100% | residual activity [18] 100% | residual activity [19] 100% | residual activity [20] 100% | residual activity [21] 100% | inhibition [22] 14.3% | residual activity [23] 100% | residual activity [24] 92% | residual activity [25] 95% | residual activity [26] 100% | residual activity [27] 100% | residual activity [28] 100% | residual activity [29] 100% | residual activity [30] 100% | residual activity [31] 71% | residual activity [32] 93% | residual activity [33] 88% | residual activity [34] 100% | residual activity [36] 100% | residual activity [37] 92% | residual activity [38] 100% | residual activity [39] 94% | inhibition [40] -3.09% | residual activity [41] 100% | residual activity [42] 100% | residual activity [43] 88% | residual activity [44] 100% | residual activity [45] 100%
